Results as given in patent publication EP3057951B1, “METHYLENE LINKED QUINOLINYL MODULATORS OF ROR-GAMMA-T” (Janssen Pharmaceutica NV, priority 2013, dated 2015).
Values joined by “and” are separate entries in the source; they are usually repeats but may differ in a detail not shown here. Equal values may be shown once.

Key:
[1] = target: T1, wild type human RORγt LBD (Homo sapiens, UniProt P51449); test: RORγt (LBD) Reporter Assay (GAL4-luciferase, HEK293T cells); type: cell-based; details: HEK293T cells; for inhibition at 6 µM: HEK-293T, read-out: RORγt (LBD) Reporter Assay, % inhibition @ 6 µM, 6 µM compound concentration; for RORγt (LBD) Reporter Assay, % inhibition @ 6 µM: 6 µM compound concentration
T1 construct: expressed in transfected cells; host or cells: HEK293T
T1 sequence (P51449 258-518): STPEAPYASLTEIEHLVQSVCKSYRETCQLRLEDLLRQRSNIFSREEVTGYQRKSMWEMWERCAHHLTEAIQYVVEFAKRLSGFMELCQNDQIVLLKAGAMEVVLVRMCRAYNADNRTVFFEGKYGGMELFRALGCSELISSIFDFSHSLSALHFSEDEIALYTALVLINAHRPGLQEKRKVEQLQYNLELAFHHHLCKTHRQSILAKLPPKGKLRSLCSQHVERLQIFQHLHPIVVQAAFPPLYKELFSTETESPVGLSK

[2] = target: T2, wild type human RORγt ligand binding domain (RORyt LBD) (Homo sapiens, UniProt P51449); test: RORγt ThermoFluor assay (thermal shift, binding affinity KD)
T2 construct: His-tag (N); TurboTEV protease cleavage site (ENLYFQG) (N); made in house; host or cells: E. coli (pHIS1, modified pET vector)
T2 sequence (P51449 258-518): T1 sequence (P51449 258-518)

Row | SMILES | IC50 [1] | inhibition at 6 µM [1] | Kd [2] | RORγt (LBD) Reporter Assay, % inhibition @ 6 µM [1]
1 | Cn1cncc1C(O)(c1ccc(C(F)(F)F)nc1)c1ccc2nc(-c3nccn3C)c(Cc3ccccc3)c(Cl)c2c1 (single isomer, unassigned) [Example 113b, (3-Benzyl-4-chloro-2-(1-methyl-1H-imidazol-2-yl)quinolin-6-yl)(1-methyl-1H-imidazol-5-yl)(6-(trifluoromethyl)pyridin-3-yl)methanol] | ~6000 nM | 58% | 23000 nM | 
2 | COc1nc2ccc(C(O)(c3ccc(C)nc3C)c3cnnn3C)cc2c(Cl)c1Cc1ccc(S(C)(=O)=O)cc1 (single isomer, unassigned) [Example 117b, (4-Chloro-2-methoxy-3-(4-(methylsulfonyl)benzyl)quinolin-6-yl)(2,6-dimethylpyridin-3-yl)(1-methyl-1H-1,2,3-triazol-5-yl)methanol] | ~4000 nM | 88% | 1300 nM | 
3 | COc1nc2ccc(C(O)(c3ccc(C)nc3C)c3cnnn3C)cc2c(Cl)c1Cc1ccc(S(C)(=O)=O)cc1 (single isomer, unassigned) [Example 117c, (4-Chloro-2-methoxy-3-(4-(methylsulfonyl)benzyl)quinolin-6-yl)(2,6-dimethylpyridin-3-yl)(1-methyl-1H-1,2,3-triazol-5-yl)methanol] | 52 nM |  | 5.5 nM | 101%
4 | COc1nc2ccc(C(O)(c3ncccn3)c3cncn3C)cc2c(Cl)c1Cc1ccc(-n2cccn2)cc1 (single isomer, unassigned) [Example 131b, {4-Chloro-2-methoxy-3-[4-(1H-pyrazol-1-yl)benzyl]quinolin-6-yl}(1-methyl-1H-imidazol-5-yl)pyrimidin-2-ylmethanol] | ~6000 nM |  | 9000 nM | 59%
5 | COc1nc2ccc(C(O)(c3ncccn3)c3cncn3C)cc2c(Cl)c1Cc1ccc(-n2cccn2)cc1 (single isomer, unassigned) [Example 131c, {4-Chloro-2-methoxy-3-[4-(1H-pyrazol-1-yl)benzyl]quinolin-6-yl}(1-methyl-1H-imidazol-5-yl)pyrimidin-2-ylmethanol] | 1600 nM |  | 220 nM | 100%
6 | COC1CN(c2nc3ccc(C(O)(c4ccc(C(F)(F)F)nc4)c4cncn4C)cc3c(Cl)c2Cc2ccc(-n3cccn3)cc2)C1 (single isomer, unassigned) [Example 133b, {4-Chloro-2-(3-methoxyazetidin-1-yl)-3-[4-(1H-pyrazol-1-yl)benzyl]quinolin-6-yl}(1-methyl-1H-imidazol-5-yl)[6-(trifluoromethyl)pyridin-3-yl]methanol] | 840 nM | 99% | 330 nM | 
7 | COC1CN(c2nc3ccc(C(O)(c4ccc(C(F)(F)F)nc4)c4cncn4C)cc3c(Cl)c2Cc2ccc(-n3cccn3)cc2)C1 (single isomer, unassigned) [Example 133c, {4-Chloro-2-(3-methoxyazetidin-1-yl)-3-[4-(1H-pyrazol-1-yl)benzyl]quinolin-6-yl}(1-methyl-1H-imidazol-5-yl)[6-(trifluoromethyl)pyridin-3-yl]methanol] | 1200 nM |  | 12000 nM | 82%
8 | Cn1cncc1C(O)(c1ccc(C(F)(F)F)nc1)c1ccc2nc(N3CC(O)C3)c(Cc3ccc(-n4cccn4)cc3)c(Cl)c2c1 (single isomer, unassigned) [Example 134b, 1-(4-Chloro-6-{hydroxy(1-methyl-1H-imidazol-5-yl)[6-(trifluoromethyl)pyridin-3-yl]methyl}-3-[4-(1H-pyrazol-1-yl)benzyl]quinolin-2-yl)azetidin-3-ol] | 420 nM | 101% | 220 nM | 
9 | Cn1cncc1C(O)(c1ccc(C(F)(F)F)nc1)c1ccc2nc(N3CC(O)C3)c(Cc3ccc(-n4cccn4)cc3)c(Cl)c2c1 (single isomer, unassigned) [Example 134c, 1-(4-Chloro-6-{hydroxy(1-methyl-1H-imidazol-5-yl)[6-(trifluoromethyl)pyridin-3-yl]methyl}-3-[4-(1H-pyrazol-1-yl)benzyl]quinolin-2-yl)azetidin-3-ol] | 1100 nM |  | 1200 nM | 96%
10 | Cn1cncc1C(O)(c1ccc(C(F)(F)F)nc1)c1ccc2nc(N3CC(F)(F)C3)c(Cc3ccc(-n4cccn4)cc3)c(Cl)c2c1 (single isomer, unassigned) [Example 135b, {4-Chloro-2-(3,3-difluoroazetidin-1-yl)-3-[4-(1H-pyrazol-1-yl)benzyl]quinolin-6-yl}(1-methyl-1H-imidazol-5-yl)[6-(trifluoromethyl)pyridin-3-yl]methanol] | 260 nM | 99% | 160 nM | 
11 | Cn1cncc1C(O)(c1ccc(C(F)(F)F)nc1)c1ccc2nc(N3CC(F)(F)C3)c(Cc3ccc(-n4cccn4)cc3)c(Cl)c2c1 (single isomer, unassigned) [Example 135c, {4-Chloro-2-(3,3-difluoroazetidin-1-yl)-3-[4-(1H-pyrazol-1-yl)benzyl]quinolin-6-yl}(1-methyl-1H-imidazol-5-yl)[6-(trifluoromethyl)pyridin-3-yl]methanol] | 77 nM |  | 23 nM | 95%
12 | Cc1cc(C(O)(c2ccc(Cl)cc2)c2cncn2C)cc2c(Cl)c(Cc3ccc(-n4cccn4)cc3)c(N3CCC3)nc12 (single isomer, unassigned) [Example 136b, {2-Azetidin-1-yl-4-chloro-8-methyl-3-[4-(1H-pyrazol-1-yl)benzyl]quinolin-6-yl}(4-chlorophenyl)(1-methyl-1H-imidazol-5-yl)methanol] | 1000 nM | 83% | 2300 nM | 
13 | Cc1cc(C(O)(c2ccc(Cl)cc2)c2cncn2C)cc2c(Cl)c(Cc3ccc(-n4cccn4)cc3)c(N3CCC3)nc12 (single isomer, unassigned) [Example 136c, {2-Azetidin-1-yl-4-chloro-8-methyl-3-[4-(1H-pyrazol-1-yl)benzyl]quinolin-6-yl}(4-chlorophenyl)(1-methyl-1H-imidazol-5-yl)methanol] | 140 nM |  | 19 nM | 97%
14 | Cc1cc(C(O)(c2ccc(C(F)(F)F)nc2)c2cncn2C)cc2c(Cl)c(Cc3ccc(-n4cccn4)cc3)c(N3CCC3)nc12 (single isomer, unassigned) [Example 137b, {2-Azetidin-1-yl-4-chloro-8-methyl-3-[4-(1H-pyrazol-1-yl)benzyl]quinolin-6-yl}(1-methyl-1H-imidazol-5-yl)[6-(trifluoromethyl)pyridin-3-yl]methanol] | 160 nM | 93% | 41 nM | 
15 | Cc1cc(C(O)(c2ccc(C(F)(F)F)nc2)c2cncn2C)cc2c(Cl)c(Cc3ccc(-n4cccn4)cc3)c(N3CCC3)nc12 (single isomer, unassigned) [Example 137c, {2-Azetidin-1-yl-4-chloro-8-methyl-3-[4-(1H-pyrazol-1-yl)benzyl]quinolin-6-yl}(1-methyl-1H-imidazol-5-yl)[6-(trifluoromethyl)pyridin-3-yl]methanol] | 140 nM |  | 4.5 nM | 94%
16 | Cn1cncc1C(O)(c1ccc(Cl)cc1)c1ccc2nc(N3CCC3)c(Cc3ccc(-n4cccn4)cc3)c(Cl)c2c1 (single isomer, unassigned) [Example 138b, {2-Azetidin-1-yl-4-chloro-3-[4-(1H-pyrazol-1-yl)benzyl]quinolin-6-yl}(4-chlorophenyl)(1-methyl-1H-imidazol-5-yl)methanol] | 560 nM | 101% | 1300 nM | 
17 | Cn1cncc1C(O)(c1ccc(Cl)cc1)c1ccc2nc(N3CCC3)c(Cc3ccc(-n4cccn4)cc3)c(Cl)c2c1 (single isomer, unassigned) [Example 138c, {2-Azetidin-1-yl-4-chloro-3-[4-(1H-pyrazol-1-yl)benzyl]quinolin-6-yl}(4-chlorophenyl)(1-methyl-1H-imidazol-5-yl)methanol] | 75 nM |  | 32 nM | 96%
18 | Cc1ccc(C(O)(c2ccc3nc(N4CCC4)c(Cc4ccc(C(F)(F)F)cc4)c(Cl)c3c2)c2cnnn2C)c(C)n1 (single isomer, unassigned) [Example 140b, {2-Azetidin-1-yl-4-chloro-3-[4-(trifluoromethyl)benzyl]quinolin-6-yl}(2,6-dimethylpyridin-3-yl)(1-methyl-1H-1,2,3-triazol-5-yl)methanol] | ~100 nM | 101% | 130 nM | 
19 | Cc1ccc(C(O)(c2ccc3nc(N4CCC4)c(Cc4ccc(C(F)(F)F)cc4)c(Cl)c3c2)c2cnnn2C)c(C)n1 (single isomer, unassigned) [Example 140c, {2-Azetidin-1-yl-4-chloro-3-[4-(trifluoromethyl)benzyl]quinolin-6-yl}(2,6-dimethylpyridin-3-yl)(1-methyl-1H-1,2,3-triazol-5-yl)methanol] | 0.66 nM and ~1 nM |  | 0.15 nM | 99%
20 | Cc1ccc(C(O)(c2ccc3nc(N4CCC4)c(Cc4ccc(-n5cccn5)cc4)c(Cl)c3c2)c2cnnn2C)c(C)n1 (single isomer, unassigned) [Example 141b, {2-Azetidin-1-yl-4-chloro-3-[4-(1H-pyrazol-1-yl)benzyl]quinolin-6-yl}(2,6-dimethylpyridin-3-yl)(1-methyl-1H-1,2,3-triazol-5-yl)methanol] | > 6000 nM |  | 17000 nM | 20%
